# In publication PMC4669708 (Cell Death & Disease, 2015):
# Experiments:
# Experiment in all cases: c-ponatinib pulldown LC-MS/MS
# Assay type in all cases: binding
# PTK2B = PTK2B (Homo sapiens, UniProt Q14289)
# Outline: (§1)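 Read-out: interaction P-value combining Mascot scores, Phenyx scores and spectral counts (Fisher's method), plus fold reduction of median spectral counts on free-compound competition. Proteins were enriched from 10 mg cell lysate on c-ponatinib beads, then trypsin-digested for LC-MS/MS.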
# GAK = biological target: T1, GAK (Homo sapiens, UniProt O14976)
# T1 sequence (O14976 1-1311): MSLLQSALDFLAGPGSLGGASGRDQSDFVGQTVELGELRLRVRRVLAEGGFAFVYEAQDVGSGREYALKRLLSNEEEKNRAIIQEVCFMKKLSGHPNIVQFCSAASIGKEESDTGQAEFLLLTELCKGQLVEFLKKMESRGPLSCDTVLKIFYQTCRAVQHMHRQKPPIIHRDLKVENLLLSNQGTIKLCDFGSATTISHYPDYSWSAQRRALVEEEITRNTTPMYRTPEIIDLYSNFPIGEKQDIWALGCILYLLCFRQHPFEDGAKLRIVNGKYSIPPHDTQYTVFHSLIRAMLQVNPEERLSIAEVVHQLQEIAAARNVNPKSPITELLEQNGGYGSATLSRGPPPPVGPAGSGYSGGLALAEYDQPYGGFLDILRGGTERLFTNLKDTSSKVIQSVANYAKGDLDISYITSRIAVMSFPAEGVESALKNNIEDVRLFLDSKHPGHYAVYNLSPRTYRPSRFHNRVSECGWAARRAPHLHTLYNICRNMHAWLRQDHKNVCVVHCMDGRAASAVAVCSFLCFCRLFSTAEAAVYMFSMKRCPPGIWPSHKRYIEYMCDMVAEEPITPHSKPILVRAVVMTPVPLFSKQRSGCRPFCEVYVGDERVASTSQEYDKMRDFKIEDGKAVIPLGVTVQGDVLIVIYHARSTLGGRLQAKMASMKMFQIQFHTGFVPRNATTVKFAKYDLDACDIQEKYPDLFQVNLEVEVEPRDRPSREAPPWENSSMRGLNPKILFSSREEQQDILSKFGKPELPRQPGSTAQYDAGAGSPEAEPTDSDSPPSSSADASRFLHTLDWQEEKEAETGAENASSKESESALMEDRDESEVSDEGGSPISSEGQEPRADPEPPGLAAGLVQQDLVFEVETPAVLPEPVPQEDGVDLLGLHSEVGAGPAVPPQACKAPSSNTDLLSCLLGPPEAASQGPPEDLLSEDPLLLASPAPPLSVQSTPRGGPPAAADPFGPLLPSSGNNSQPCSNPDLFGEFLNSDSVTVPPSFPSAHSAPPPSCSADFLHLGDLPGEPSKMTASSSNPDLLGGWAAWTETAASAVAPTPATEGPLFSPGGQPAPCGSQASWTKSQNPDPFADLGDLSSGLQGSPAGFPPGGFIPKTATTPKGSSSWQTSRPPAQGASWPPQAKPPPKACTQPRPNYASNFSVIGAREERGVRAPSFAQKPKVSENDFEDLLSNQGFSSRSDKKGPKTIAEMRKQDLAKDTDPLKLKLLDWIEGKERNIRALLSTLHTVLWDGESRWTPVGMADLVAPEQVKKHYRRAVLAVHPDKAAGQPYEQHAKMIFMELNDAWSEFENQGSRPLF
# Outline: as §1
# HSPA9 = HSPA9 (Homo sapiens, UniProt P38646)
# Outline: as §1
# HSPA8 = HSPA8 (Homo sapiens, UniProt P11142)
# Outline: as §1
# Chain of HSPA8 (P11142 whole entry): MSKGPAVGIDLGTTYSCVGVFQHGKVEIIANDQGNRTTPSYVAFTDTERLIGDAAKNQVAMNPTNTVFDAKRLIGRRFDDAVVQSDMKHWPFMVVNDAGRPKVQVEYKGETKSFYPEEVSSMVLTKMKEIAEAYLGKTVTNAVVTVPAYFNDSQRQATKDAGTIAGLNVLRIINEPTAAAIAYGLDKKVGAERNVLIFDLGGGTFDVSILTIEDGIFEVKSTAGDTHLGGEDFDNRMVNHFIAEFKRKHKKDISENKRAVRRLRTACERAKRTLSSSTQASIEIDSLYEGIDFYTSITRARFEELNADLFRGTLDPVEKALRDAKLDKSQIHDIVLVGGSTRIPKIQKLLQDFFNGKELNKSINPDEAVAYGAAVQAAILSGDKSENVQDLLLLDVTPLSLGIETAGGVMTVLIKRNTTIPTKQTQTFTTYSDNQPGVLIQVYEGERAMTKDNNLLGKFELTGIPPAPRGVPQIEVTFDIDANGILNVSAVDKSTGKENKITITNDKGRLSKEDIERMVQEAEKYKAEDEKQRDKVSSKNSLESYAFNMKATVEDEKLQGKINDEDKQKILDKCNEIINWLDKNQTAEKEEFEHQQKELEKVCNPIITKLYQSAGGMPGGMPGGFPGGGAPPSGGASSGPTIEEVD
# Chain of PTK2B (Q14289 whole entry): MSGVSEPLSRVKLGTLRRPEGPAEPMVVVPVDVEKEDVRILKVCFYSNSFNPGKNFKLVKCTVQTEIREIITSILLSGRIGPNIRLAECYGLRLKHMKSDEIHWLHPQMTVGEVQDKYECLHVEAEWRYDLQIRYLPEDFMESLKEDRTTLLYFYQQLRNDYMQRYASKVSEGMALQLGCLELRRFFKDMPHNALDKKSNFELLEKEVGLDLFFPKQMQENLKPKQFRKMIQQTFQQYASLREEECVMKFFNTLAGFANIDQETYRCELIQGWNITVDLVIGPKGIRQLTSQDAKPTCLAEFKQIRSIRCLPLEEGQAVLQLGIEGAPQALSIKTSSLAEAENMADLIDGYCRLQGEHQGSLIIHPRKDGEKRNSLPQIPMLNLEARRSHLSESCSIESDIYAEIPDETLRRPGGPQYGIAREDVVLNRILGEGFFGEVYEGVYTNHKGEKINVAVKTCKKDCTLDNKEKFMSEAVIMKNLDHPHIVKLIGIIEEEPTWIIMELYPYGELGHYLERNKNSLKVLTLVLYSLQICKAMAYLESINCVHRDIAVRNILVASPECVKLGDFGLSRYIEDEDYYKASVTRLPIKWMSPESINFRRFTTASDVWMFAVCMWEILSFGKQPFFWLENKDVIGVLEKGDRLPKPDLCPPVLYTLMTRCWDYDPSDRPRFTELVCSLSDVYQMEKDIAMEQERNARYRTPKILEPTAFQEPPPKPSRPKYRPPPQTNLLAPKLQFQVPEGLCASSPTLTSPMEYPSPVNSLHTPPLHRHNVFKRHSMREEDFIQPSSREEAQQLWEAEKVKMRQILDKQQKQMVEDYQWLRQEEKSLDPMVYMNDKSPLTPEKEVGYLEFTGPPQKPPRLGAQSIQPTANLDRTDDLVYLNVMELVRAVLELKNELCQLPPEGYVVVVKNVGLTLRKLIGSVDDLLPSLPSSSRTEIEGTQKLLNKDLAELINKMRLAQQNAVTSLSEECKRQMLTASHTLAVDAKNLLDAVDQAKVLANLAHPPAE
# Chain of HSPA9 (P38646 47-679): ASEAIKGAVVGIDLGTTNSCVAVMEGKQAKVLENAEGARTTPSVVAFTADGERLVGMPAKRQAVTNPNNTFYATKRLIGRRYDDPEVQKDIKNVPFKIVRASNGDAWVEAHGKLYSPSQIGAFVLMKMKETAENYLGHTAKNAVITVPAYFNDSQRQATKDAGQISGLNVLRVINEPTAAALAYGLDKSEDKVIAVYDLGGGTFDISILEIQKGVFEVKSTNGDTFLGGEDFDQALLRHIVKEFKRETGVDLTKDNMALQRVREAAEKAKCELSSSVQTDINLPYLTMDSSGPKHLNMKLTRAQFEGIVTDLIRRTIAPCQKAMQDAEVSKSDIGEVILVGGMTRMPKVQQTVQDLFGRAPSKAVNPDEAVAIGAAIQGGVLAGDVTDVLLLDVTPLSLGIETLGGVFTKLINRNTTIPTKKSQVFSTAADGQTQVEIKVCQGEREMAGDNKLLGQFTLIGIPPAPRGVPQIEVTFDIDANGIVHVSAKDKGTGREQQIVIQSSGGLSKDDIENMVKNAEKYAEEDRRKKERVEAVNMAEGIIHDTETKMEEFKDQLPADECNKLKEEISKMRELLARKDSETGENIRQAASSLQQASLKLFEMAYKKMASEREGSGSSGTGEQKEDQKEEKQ
smiles,measurement,setting,value
Cc1ccc(C(=O)Nc2ccc(CN3CCN(CCCN)CC3)c(C(F)(F)F)c2)cc1C#Cc1cnc2cccnn12 [c-ponatinib],Av. SC comp.,PTK2B; + free ponatinib,0
same,Total SC comp.,PTK2B; + free ponatinib,0
same,Av. SC,PTK2B; no competitor,32.5
same,Total SC,PTK2B; no competitor,130
same,Av. SC comp.,GAK; + free ponatinib,10.25
same,Total SC comp.,GAK; + free ponatinib,41
same,Av. SC,GAK; no competitor,22.75
same,Total SC,GAK; no competitor,91
same,Av. SC comp.,HSPA9; + free ponatinib,0
same,Total SC comp.,HSPA9; + free ponatinib,0
same,Av. SC,HSPA9; no competitor,3.25
same,Total SC,HSPA9; no competitor,13
same,Av. SC comp.,HSPA8; + free ponatinib,17.25
same,Total SC comp.,HSPA8; + free ponatinib,69
same,Av. SC,HSPA8; no competitor,29.25
same,Total SC,HSPA8; no competitor,117
